Assay results as given in patent publication US20190001002A1, “DRUG DESIGN FOR APPLICATION-DEPENDENT PAYLOAD, CONTROLLED PHARMACOKINETIC DISTRIBUTION, AND RENAL CLEARANCE” (General Electric Company, priority 2017, published 2019).
Like-named read-outs stand apart in the source and are kept apart here.

Columns and labels:
[1] = Contrast-enhanced liver CT scans of swine in fat-equivalent encasements, multi-reader image quality assessment; assay type: in vivo; conditions: swine CT in adipose-equivalent encasements, relative to TaCZ, FIG. 6
Method: The scans were performed one day to one week apart, and the scan sequence was randomized. During scanning, the pigs were encased in plastic fat-equivalent encasements to emulate a range of large patient sizes. Scans were performed in the pigs' livers at several time points from 30 to 300 seconds after injection. Image quality at each time point was graded by radiologists using predefined criteria such as image contrast in specified vessels.
In FIG. 6, images 220 on the left were acquired using a conventional iodinated contrast agent, iopromide, while images 220 on the right were acquired using the TaCZ nanoparticle contrast agent described above. Vertically, the images are arranged based on patient size.
In FIG. 7, the results of the multi-reader assessment are provided in graphical form.

[2] = Pharmacokinetic modeling of active element (iodine or tantalum) concentration in pig blood/plasma after contrast agent injection; assay type: in vivo; conditions: plasma, other: injection
From the text: Given this illustration of endothelial permeability, it may be appreciated that, immediately after administration, small-molecule contrast agents begin to distribute from the blood pool into interstitial fluid. Due to this “distribution phase”, the concentration of the contrast agent in the blood pool becomes immediately diluted by a factor of two or more in the first minutes after injection. This is illustrated in FIG. 3 where the concentration of the contrast agent iopromide in pig plasma is illustrated as a function of time, with both a distribution phase and elimination phase being evident.
This distribution occurs at a relatively fast rate, with a half-life (T½a) on the order of minutes and is denoted as the distribution phase in FIG. 3. […] Therefore, the concentration of the molecule in the blood would decrease approximately four fold in much less than 10 minutes due to this initial distribution process alone. However, the drug is simultaneously cleared from the blood by the kidneys at a slower rate, with a T½ on the order of 1-2 hours (denoted as the elimination phase in FIG. 3), resulting in an additional lowering of the concentration in the blood.
In a separate analysis, PK modeling was obtained by analyzing the concentration of the active element (iodine or tantalum) in blood samples taken from 2 to 240 minutes after contrast agent injection. […]

half-life ([2]; FIG. 3, read-out: distribution-phase half-life (T½a) in plasma): < 5 min | half-life ([2]; cleared from the blood by the kidneys, FIG. 3, read-out: clearance half-life T½ (elimination phase)): 60 to 120 min
SMILES: COCC(=O)Nc1c(I)c(C(=O)NCC(O)CO)c(I)c(C(=O)N(C)CC(O)CO)c1I (stereo not drawn) [iopromide]
image contrast enhancement as patient size (and X-ray energy) increases [1]: decreases
